Results: article PMC5259791 (Scientific Reports, 2017)

Experiments:
PPARγ1 C285A mutant = molecular target: T1, PPARγ1 C285A mutant (Homo sapiens, UniProt P37231, C313A); assay: PPRE-luciferase transactivation in HEK293T cells co-transfected with PPARγ1 C285A mutant; format: cell-based; conditions: C285A mutant versus wild type receptor, 24 h
T1 construct: expressed in transfected cells; host or cells: HEK293T (transient); vectors from Takuma Shiraki
T1 sequence (P37231 1-477 isoform P37231-2 C285A): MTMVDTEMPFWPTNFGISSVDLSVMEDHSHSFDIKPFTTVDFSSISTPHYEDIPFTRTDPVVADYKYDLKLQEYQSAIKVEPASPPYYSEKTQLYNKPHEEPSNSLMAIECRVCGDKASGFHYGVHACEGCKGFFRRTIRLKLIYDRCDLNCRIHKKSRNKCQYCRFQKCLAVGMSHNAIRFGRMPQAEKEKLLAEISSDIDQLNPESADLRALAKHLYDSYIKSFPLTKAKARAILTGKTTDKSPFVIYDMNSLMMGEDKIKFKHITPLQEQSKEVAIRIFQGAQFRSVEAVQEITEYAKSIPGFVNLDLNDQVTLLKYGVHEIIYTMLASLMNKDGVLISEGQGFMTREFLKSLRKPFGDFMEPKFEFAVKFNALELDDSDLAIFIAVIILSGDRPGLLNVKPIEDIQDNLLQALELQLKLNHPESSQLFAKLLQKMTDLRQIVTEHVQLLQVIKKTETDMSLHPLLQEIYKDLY
From the text: (b) Human HEK293T cells were co-transfected with the PPRE-luciferase reporter gene and the wild-type PPARγ1 or its mutant version (C285A).
HEK293 cells that stably express an exogenous Flag-tagged PPARγ from a transfected PCDNA-3 vector carrying a complete PPARγ cDNA were used for transfection experiments. The PPRE-Luc plasmid contains a luciferase reporter gene under the transcriptional control of three copies of the PPRE (Peroxisome Proliferator Response Element) derived from Acyl-CoA oxidase gene fused upstream to the herpes simplex thymidine kinase (TK) promoter, as described. […] Transient transfection assays were carried out as described in ref. [44]. […] In this case, the experiments were carried out into basal HEK293T cells and the RSV-β-Gal plasmid was used as control for transfection efficiency. […] The wild type and mutant PPARγ containing expression vectors were kindly provided by Dott. Takuma Shiraki. At least three independent experiments were performed for each transfection carried out in duplicate. Luciferase activity was normalized to β-galactosidase activity and reported as fold-induction.

Hsp60 = molecular target: T2, Hsp60 (Homo sapiens, UniProt P10809); assay: SPR on immobilized Hsp60; format: binding
T2 construct: purchased Tebu-Bio
Description: (§1) Conversely, no affinity of the diterpene towards Hsp60 was observed (Fig. 2c).
(§2) SPR analyses were carried out on a BIACORE 3000 instrument (GE-Healthcare). PPARα, PPARγ, PPARδ and HSP60 surfaces were prepared on research−grade CM5 sensor chips (GE Healthcare). Proteins (100 μg/ml in 10 mM CH3COONa, pH 5.0) were immobilized using a standard amine−coupling protocol, to obtain densities of 3–5 kRU. Testing compounds were dissolved in 100% DMSO to obtain 4 mM solutions, and then diluted in PBS containing variable amounts of DMSO, achieving a final DMSO concentration of 0.1%. For each molecule a five−point concentration series (25 nM, 65 nM, 150 nM, 400 nM, 1 μM) was set up. SPR experiments and data elaboration were carried out as reported elsewhere.

PPARα = molecular target: T3, PPARα (Homo sapiens, UniProt Q07869); assay: SPR on immobilized PPARα; format: binding
T3 construct: purchased Tebu-Bio
T3 sequence (Q07869 1-468): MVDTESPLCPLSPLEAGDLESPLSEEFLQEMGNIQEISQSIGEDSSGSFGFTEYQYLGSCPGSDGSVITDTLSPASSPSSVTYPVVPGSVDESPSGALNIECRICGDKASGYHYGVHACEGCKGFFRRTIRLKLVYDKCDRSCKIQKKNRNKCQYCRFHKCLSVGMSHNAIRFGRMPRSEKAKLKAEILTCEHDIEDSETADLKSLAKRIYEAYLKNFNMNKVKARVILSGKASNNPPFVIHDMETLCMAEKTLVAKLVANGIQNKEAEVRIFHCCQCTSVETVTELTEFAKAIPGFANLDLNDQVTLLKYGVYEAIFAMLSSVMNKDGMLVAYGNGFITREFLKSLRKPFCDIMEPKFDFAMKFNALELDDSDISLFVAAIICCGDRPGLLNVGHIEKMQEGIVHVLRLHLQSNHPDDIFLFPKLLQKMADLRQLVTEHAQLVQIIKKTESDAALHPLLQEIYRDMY
Description: (§3) In order to evaluate if 1 acts as a selective ligand of PPARγ, SPR analyses were also carried out on immobilized PPARα and PPARδ, two proteins structurally and functionally related to PPARγ[23][24].
as §2

PPARδ = molecular target: T4, PPARδ (Homo sapiens, UniProt Q03181); assay: SPR on immobilized PPARδ; format: binding
T4 construct: purchased Tebu-Bio
T4 sequence (Q03181 1-441): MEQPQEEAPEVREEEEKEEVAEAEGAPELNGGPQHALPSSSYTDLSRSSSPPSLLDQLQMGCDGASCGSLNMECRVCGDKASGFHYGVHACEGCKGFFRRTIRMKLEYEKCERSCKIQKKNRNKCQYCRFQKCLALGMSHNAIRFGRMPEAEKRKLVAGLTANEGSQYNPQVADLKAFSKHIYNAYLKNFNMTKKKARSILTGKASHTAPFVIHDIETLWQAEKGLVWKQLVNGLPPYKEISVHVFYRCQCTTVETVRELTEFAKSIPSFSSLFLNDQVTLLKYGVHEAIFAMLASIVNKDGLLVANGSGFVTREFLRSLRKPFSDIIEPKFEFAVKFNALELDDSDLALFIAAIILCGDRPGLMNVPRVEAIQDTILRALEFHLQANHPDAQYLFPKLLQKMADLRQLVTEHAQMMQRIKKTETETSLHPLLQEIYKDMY
Description: as §3, §2

PPARγ LBD = molecular target: T5, PPARγ LBD (Homo sapiens, UniProt P37231); assay: SPR on immobilized PPARγ LBD; format: binding
T5 construct: Recombinant human PPARγ-LBD, consisting of the region 195–477 of PPARγ; purchased Bertin-Pharma
T5 sequence (P37231 195-477 isoform P37231-2): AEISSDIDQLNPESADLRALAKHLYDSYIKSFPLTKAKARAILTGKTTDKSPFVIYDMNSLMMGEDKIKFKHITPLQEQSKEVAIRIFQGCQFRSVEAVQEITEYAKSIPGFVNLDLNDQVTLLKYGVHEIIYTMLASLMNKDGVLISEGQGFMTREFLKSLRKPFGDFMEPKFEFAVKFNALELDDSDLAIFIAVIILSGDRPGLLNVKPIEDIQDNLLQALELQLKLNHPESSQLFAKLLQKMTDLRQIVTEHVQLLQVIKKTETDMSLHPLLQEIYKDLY
Description: as §1, §2

T2 sequence (P10809 27-573): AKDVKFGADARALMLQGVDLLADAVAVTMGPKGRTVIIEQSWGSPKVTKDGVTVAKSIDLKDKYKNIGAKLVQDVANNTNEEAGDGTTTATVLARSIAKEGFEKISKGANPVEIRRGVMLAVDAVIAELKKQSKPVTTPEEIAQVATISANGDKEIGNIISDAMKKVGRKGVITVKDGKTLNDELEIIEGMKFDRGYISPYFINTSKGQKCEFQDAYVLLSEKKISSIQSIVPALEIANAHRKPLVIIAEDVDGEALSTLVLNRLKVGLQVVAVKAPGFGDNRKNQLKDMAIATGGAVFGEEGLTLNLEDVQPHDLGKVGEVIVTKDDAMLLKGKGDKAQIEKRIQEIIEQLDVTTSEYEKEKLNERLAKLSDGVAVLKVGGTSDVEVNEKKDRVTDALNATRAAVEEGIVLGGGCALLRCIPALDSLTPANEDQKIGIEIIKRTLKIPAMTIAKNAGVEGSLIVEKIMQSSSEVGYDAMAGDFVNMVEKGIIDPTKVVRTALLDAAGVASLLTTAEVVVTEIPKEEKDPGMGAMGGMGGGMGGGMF

C=C1C(=O)C23CCC4C(C(=O)OC)CC(O)CC4(C)C2CCC1C3 (stereo not shown) [Compound 1, 15-ketoatractyligenin methyl ester]
luciferase activity with C285A mutant (PPARγ1 C285A mutant): even lower luciferase activity
affinity towards Hsp60 (Hsp60): no affinity
interaction with PPARα (PPARα): only a weak interaction
time to complete dissociation of complex (PPARα; 1/PPARα complex): less than 50 s
Kd (PPARα; immobilized PPARα): 1.32 ± 0.08 µM
binding to PPARδ (PPARδ): no significant binding
Kd (PPARγ LBD): 0.0392 ± 0.0039 µM
